Source: ChEMBL document CHEMBL1201862, “PubChem BioAssay data set” (2004)
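Tested at 5 concentrations; 48 h exposure; 96-well plates; endpoints linearly interpolated, else capped at highest concentration. The concentration for 50% growth inhibition is given as GI50.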 Calls of active or inactive are those of the source. Cut-off read from the data, not from the text of the source: active = GI50 up to about 1.1 µM and inactive = higher.

How the values were obtained:
Experiment in all cases: NCI tumour cell line growth inhibition, 48 h
SK-MEL-28 = test system: SK-MEL-28
Malme-3M = test system: Malme-3M
PC-3 = test system: PC-3
RXF 393 = test system: RXF 393
HL-60 = test system: HL-60
BT-549 = test system: BT-549
NCI-H460 = test system: NCI-H460
NCI-H522 = test system: NCI-H522
OVCAR-4 = test system: OVCAR-4
OVCAR-3 = test system: OVCAR-3
SNB-75 = test system: SNB-75
SW-620 = test system: SW-620
HCT-15 = test system: HCT-15
UACC-257 = test system: UACC-257
CCRF-CEM = test system: CCRF-CEM
NCI-H23 = test system: NCI-H23
RPMI-8226 = test system: RPMI-8226
SK-OV-3 = test system: SK-OV-3
DU-145 = test system: DU-145
KM-20L2 = test system: KM-20L2

| Compound | GI50 (SK-MEL-28) | GI50 (Malme-3M) | GI50 (PC-3) | GI50 (RXF 393) | GI50 (HL-60) | GI50 (BT-549) | GI50 (NCI-H460) | GI50 (NCI-H522) | GI50 (OVCAR-4) | GI50 (OVCAR-3) | GI50 (SNB-75) | GI50 (SW-620) | GI50 (HCT-15) [µM] | GI50 (UACC-257) | GI50 (CCRF-CEM) | GI50 (NCI-H23) | GI50 (RPMI-8226) | GI50 (SK-OV-3) | GI50 (DU-145) | GI50 (KM-20L2) |
| --- | --- | --- | --- | --- | --- | --- | --- | --- | --- | --- | --- | --- | --- | --- | --- | --- | --- | --- | --- | --- |
| O=C1C(NCCc2ccc(O)c(O)c2)=CC(=O)c2ncccc21 | 11.8 µM (inactive) | 4.95 µM (inactive) | 21.9 µM (inactive) | 13.8 µM (inactive) | 15.8 µM (inactive) | 4.28 µM (inactive) | 9.46 µM (inactive) | 2.36 µM (inactive) | 16.9 µM (inactive) | 2.06 µM (inactive) | 5.96 µM (inactive) | 14.4 µM (inactive) | 13.4 | 5.36 µM (inactive) | 3.22 µM (inactive) | 7.36 µM (inactive) | 16.6 µM (inactive) | 15.7 µM (inactive) | 9.86 µM (inactive) | – |
| COc1cc(CN2CCCCC2)cc2cc(C(=O)O)c(=O)oc12 | > 100 µM (inactive) | > 100 µM (inactive) | > 100 µM (inactive) | > 100 µM (inactive) | > 100 µM (inactive) | > 100 µM (inactive) | > 100 µM (inactive) | > 100 µM (inactive) | > 100 µM (inactive) | > 100 µM (inactive) | > 100 µM (inactive) | > 100 µM (inactive) | > 100 | > 100 µM (inactive) | > 100 µM (inactive) | > 100 µM (inactive) | > 100 µM (inactive) | > 100 µM (inactive) | > 100 µM (inactive) | – |
| O=C(NCCSSCCNC(=O)/C(Cc1ccc(O)c(Br)c1)=N/O)/C(Cc1ccc(O)c(Br)c1)=N/O [PSAMMAPLIN A] | 3.16 µM (inactive) | 0.597 µM (active) | 1.61 µM (inactive) | 0.796 µM (active) | 0.426 µM (active) | 6.21 µM (inactive) | 0.902 µM (active) | 0.682 µM (active) | 3.1 µM (inactive) | 1.87 µM (inactive) | 0.889 µM (active) | 1.64 µM (inactive) | 4.89 | 1.6 µM (inactive) | 0.377 µM (active) | 3.2 µM (inactive) | 1.36 µM (inactive) | 0.933 µM (active) | 1.89 µM (inactive) | – |
| Cc1cc(N(CCC#N)CCC#N)ccc1C(=N/NC(=O)c1cc(Cl)ccc1O)/N=N/c1cccc(Cl)c1 | 16 µM (inactive) | 14.2 µM (inactive) | 10.1 µM (inactive) | 10.7 µM (inactive) | 4.48 µM (inactive) | 14.8 µM (inactive) | 6.27 µM (inactive) | 13.5 µM (inactive) | 8.85 µM (inactive) | 3.56 µM (inactive) | 13.5 µM (inactive) | 17.8 µM (inactive) | 6.62 | 15.2 µM (inactive) | 4.41 µM (inactive) | 13.7 µM (inactive) | 9.79 µM (inactive) | 20.6 µM (inactive) | 18.1 µM (inactive) | – |
| Cc1ccc2nc3cc(C)c(=O)cc-3sc2c1 | > 100 µM (inactive) | > 100 µM (inactive) | – | – | 3.11 µM (inactive) | – | > 100 µM (inactive) | 34.4 µM (inactive) | 37.8 µM (inactive) | > 100 µM (inactive) | 18.7 µM (inactive) | > 100 µM (inactive) | 52.8 | 54.6 µM (inactive) | 8.95 µM (inactive) | 57.7 µM (inactive) | – | > 100 µM (inactive) | – | > 100 µM (inactive) |
| COP(=O)(OC)/C(=N\Nc1ccc([N+](=O)[O-])cc1)NCc1ccccc1 | 30.8 µM (inactive) | 38.5 µM (inactive) | – | – | 21.2 µM (inactive) | – | 27.8 µM (inactive) | 13.4 µM (inactive) | 24.5 µM (inactive) | 33.4 µM (inactive) | 11.2 µM (inactive) | 35.6 µM (inactive) | 32.4 | 21.8 µM (inactive) | 20.6 µM (inactive) | 18.9 µM (inactive) | 19.2 µM (inactive) | – | – | 30.1 µM (inactive) |
| CS(=O)(=O)N(CCC#N)c1ccc(C=O)cc1 | > 100 µM (inactive) | > 100 µM (inactive) | – | – | > 100 µM (inactive) | – | > 100 µM (inactive) | > 100 µM (inactive) | > 100 µM (inactive) | > 100 µM (inactive) | > 100 µM (inactive) | > 100 µM (inactive) | > 100 | > 100 µM (inactive) | – | – | > 100 µM (inactive) | > 100 µM (inactive) | – | > 100 µM (inactive) |
| CC(=O)/C=C\C1CC2C=CC1C2 (stereo not given) | – | 27.2 µM (inactive) | – | 63 µM (inactive) | 26.8 µM (inactive) | – | 44.1 µM (inactive) | – | 27.1 µM (inactive) | 37.8 µM (inactive) | 21.6 µM (inactive) | 33.7 µM (inactive) | 22.5 | – | 16.3 µM (inactive) | 36.1 µM (inactive) | 23.9 µM (inactive) | > 100 µM (inactive) | – | 40.2 µM (inactive) |
| CN1CCc2cc(N)cc3c2C1Cc1ccc2c(c1-3)OCO2 (stereo not given) | 27.2 µM (inactive) | 20.9 µM (inactive) | 42.7 µM (inactive) | 27.4 µM (inactive) | 28.4 µM (inactive) | 43 µM (inactive) | 28.9 µM (inactive) | 18.1 µM (inactive) | 30 µM (inactive) | 27.1 µM (inactive) | 31.9 µM (inactive) | 31 µM (inactive) | 32.3 | 22.5 µM (inactive) | 1.97 µM (inactive) | 34 µM (inactive) | 15.9 µM (inactive) | 44.9 µM (inactive) | 32.8 µM (inactive) | – |
| COc1ccc2[nH]c3nnc(N)c-3nc2c1 | 11.2 µM (inactive) | 21.8 µM (inactive) | 8.43 µM (inactive) | 2.49 µM (inactive) | 2.13 µM (inactive) | 13.6 µM (inactive) | 7.46 µM (inactive) | 5.83 µM (inactive) | 20 µM (inactive) | 3.61 µM (inactive) | 6.79 µM (inactive) | 9.4 µM (inactive) | 7.94 | 17.1 µM (inactive) | 9.31 µM (inactive) | 4.17 µM (inactive) | 3.87 µM (inactive) | 20.4 µM (inactive) | 7.55 µM (inactive) | – |
| CC(C)Oc1cc2c(cc1O)CC[C@@H]1[C@@H]2CC[C@]2(C)[C@@H](O)CC[C@@H]12 | 8.3 µM (inactive) | 3.82 µM (inactive) | 8.97 µM (inactive) | 3.82 µM (inactive) | 1.71 µM (inactive) | 5.71 µM (inactive) | 3.28 µM (inactive) | 1.58 µM (inactive) | 9.64 µM (inactive) | 2.81 µM (inactive) | 4.69 µM (inactive) | 2.72 µM (inactive) | 1.61 | 3.99 µM (inactive) | 2.9 µM (inactive) | 7.19 µM (inactive) | 4.29 µM (inactive) | 4.67 µM (inactive) | 7.28 µM (inactive) | – |
| Cc1cc(O)c(C(C)C)cc1CN1CCCCC1 | > 100 µM (inactive) | > 100 µM (inactive) | > 100 µM (inactive) | > 100 µM (inactive) | > 100 µM (inactive) | > 100 µM (inactive) | > 100 µM (inactive) | > 100 µM (inactive) | > 100 µM (inactive) | > 100 µM (inactive) | > 100 µM (inactive) | > 100 µM (inactive) | > 100 | > 100 µM (inactive) | > 100 µM (inactive) | > 100 µM (inactive) | > 100 µM (inactive) | > 100 µM (inactive) | > 100 µM (inactive) | – |
| Nc1ncn(C2OC(COP(=O)(O)O)C(O)C2O)c(=O)n1 (stereo not given) | > 100 µM (inactive) | > 81.8 µM (inactive) | > 100 µM (inactive) | > 100 µM (inactive) | > 64.4 µM (inactive) | > 100 µM (inactive) | 52.8 µM (inactive) | > 87.9 µM (inactive) | > 100 µM (inactive) | > 100 µM (inactive) | > 100 µM (inactive) | > 100 µM (inactive) | > 100 | > 100 µM (inactive) | 1.87 µM (inactive) | > 81.8 µM (inactive) | > 100 µM (inactive) | > 100 µM (inactive) | > 100 µM (inactive) | – |
| Nc1nc(Cl)cc(NCC2(CO)CC(CCc3ccccc3)C2)n1 (stereo not given) | > 100 µM (inactive) | > 100 µM (inactive) | 73.8 µM (inactive) | 24.1 µM (inactive) | 3.44 µM (inactive) | > 32.8 µM (inactive) | 22.3 µM (inactive) | 17.6 µM (inactive) | > 29.3 µM (inactive) | 5.07 µM (inactive) | 20.3 µM (inactive) | > 100 µM (inactive) | > 59.2 | 0.461 µM (active) | > 58.9 µM (inactive) | 10.5 µM (inactive) | 2.9 µM (inactive) | > 100 µM (inactive) | > 100 µM (inactive) | – |
| NC(=S)NS(=O)(=O)c1ccc(Cl)cc1Cl | > 100 µM (inactive) | > 100 µM (inactive) | > 100 µM (inactive) | > 100 µM (inactive) | > 100 µM (inactive) | > 100 µM (inactive) | > 100 µM (inactive) | > 100 µM (inactive) | > 100 µM (inactive) | > 100 µM (inactive) | > 100 µM (inactive) | > 100 µM (inactive) | > 100 | > 100 µM (inactive) | > 100 µM (inactive) | > 100 µM (inactive) | > 100 µM (inactive) | > 100 µM (inactive) | > 100 µM (inactive) | – |
| Cc1nc(C(N)=O)c(N)n1CCN1CCN(C(=O)CCCCCCCCCCNC2NC=Nc3[nH]cnc32)CC1 (stereo not given) | 22 µM (inactive) | 31.2 µM (inactive) | – | – | 15.2 µM (inactive) | – | 32.7 µM (inactive) | > 10 µM (inactive) | – | 45.9 µM (inactive) | – | > 100 µM (inactive) | > 100 | 16.3 µM (inactive) | 13.8 µM (inactive) | 10.1 µM (inactive) | – | > 100 µM (inactive) | – | > 100 µM (inactive) |
